Literature values as cited in patent US6686317B2, “Supported fluridone compositions and methods” (SePro Corporation, priority 2001, dated 2004).
Like-named read-outs stand apart in the source and are kept apart here.

Test system: aquatic plants

1-methyl-3-phenyl-5-3-(trifluoromethyl)phenyl-4(1H)-pyridinone [fluridone]
concentration to which plant species are usually susceptible (other species susceptible only to higher concentrations): 150 ppb
concentration to which plant species are usually susceptible (some (more susceptible) species, as low as): about 5 ppb
